Where two headings read alike, the source gives them in different places.
System: cell lines from the Cancer Cell Line Encyclopedia (CCLE)
Test: High-throughput cell viability assay, CCLE cell line panel (n = 356)
Type: cell-based, human
Settings: Homo sapiens
Experimental: Cell lines were partitioned into sensitive and insensitive groups based on compound potency (IC50). […] All other cell lines were obtained from ATCC (American Type Culture Collection), DSMZ (Deutsche Sammlung von Mikroorganismen und Zellkulturen), and HSRRB (Health Science Research Resources Bank) and cultured in RPMI or Dulbecco's modified Eagle's medium plus 10% FBS (Invitrogen, Carlsbad, CA) at 37°C, 5% CO2.

For `COc1cc2c(cc1OC(C)C)[C@H](c1ccc(Cl)cc1)N(c1ccc(N(C)C[C@H]3CC[C@H](N4CCNC(=O)C4)CC3)cc1)C(=O)C2` [NVP-CFC218], the IC50 (PC-3, TP53 MUT) was > 8 µM, the IC50 (PC-14, PC-14, TP53 MUT) was > 8 µM and the IC50 (PE/CA-PJ34 (clone C12), TP53 MUT) was > 8 µM. The IC50 (PE/CA-PJ49, TP53 WT) was > 8 µM, the IC50 (PK-1, TP53 MUT) was > 8 µM and the IC50 (PK-45H, TP53 WT) was > 8 µM. For the same molecule, the IC50 (PL-21, PL-21, TP53 MUT) was > 8 µM, the IC50 (PSN1, PSN1, TP53 MUT) was > 8 µM and the IC50 (PaTu 8902, PA-TU-8902, TP53 MUT) was > 8 µM. For the same molecule, the IC50 (Panc 04.03, Panc 04.03, TP53 MUT) was > 8 µM, the IC50 (QGP-1, QGP-1, TP53 WT) was > 8 µM and the IC50 (RCM-1, RCM-1, TP53 MUT) was > 8 µM. The IC50 (RERF-GC-1B, TP53 MUT) was > 8 µM, the IC50 (RERF-LC-AI, TP53 WT) was > 8 µM and the IC50 (RERF-LC-MS, TP53 MUT) was > 8 µM. For the same molecule, the IC50 (RKO, TP53 WT) was 6.44 µM, the IC50 (RPMI 8402, RPMI-8402, TP53 MUT) was > 8 µM and the IC50 (RT-112, RT-112, TP53 MUT) was > 8 µM. The IC50 (Raji, TP53 MUT) was > 8 µM, the IC50 (Reh, TP53 WT) was 2.63 µM and the IC50 (S-117, S-117, TP53 MUT) was > 8 µM. For the same molecule, the IC50 (SBC-5, SBC-5, TP53 MUT) was > 8 µM, the IC50 (SCC-4, SCC-4, TP53 MUT) was > 8 µM and the IC50 (SCC-9, SCC-9, TP53 MUT) was > 8 µM. For the same molecule, the IC50 (SCC-25, SCC-25, TP53 MUT) was > 8 µM, the IC50 (SCaBER, read-out: NVP- CFC218 IC50 (µM), cell line SCaBER, urinary_tract, TP53 MUT) was > 8 µM and the IC50 (SF-295, SF-295, TP53 MUT) was > 8 µM. For the same molecule, the IC50 (SH-10-TC, TP53 MUT) was > 8 µM, the IC50 (SHP77, SHP-77, TP53 MUT) was > 8 µM and the IC50 (SJRH30, SJRH30, TP53 MUT) was > 8 µM. The IC50 (SK-BR-3, SK-BR-3, TP53 MUT) was > 8 µM, the IC50 (SK-HEP1, read-out: NVP- CFC218 IC50 (µM), cell line SK-HEP-1, liver, TP53 WT) was > 8 µM and the IC50 (SK-LMS-1, SK-LMS-1, TP53 MUT) was > 8 µM. For the same molecule, the IC50 (SK-LU-1, SK-LU-1, TP53 MUT) was > 8 µM, the IC50 (SK-MEL-5, read-out: NVP- CFC218 IC50 (µM), cell line SK-MEL-5, skin, TP53 WT) was > 8 µM and the IC50 (SK-MEL-24, read-out: NVP- CFC218 IC50 (µM), cell line SK-MEL-24, skin, TP53 WT) was > 8 µM. For the same molecule, the IC50 (SK-MEL-30, SK-MEL-30, TP53 MUT) was > 8 µM, the IC50 (SK-MES-1, SK-MES-1, TP53 MUT) was > 8 µM and the IC50 (SK-N-AS, TP53 WT) was > 8 µM. The IC50 (SK-N-FI, TP53 MUT) was > 8 µM, the IC50 (SK-OV-3, SK-OV-3, TP53 MUT) was > 8 µM and the IC50 (SNU-182, SNU-182, TP53 MUT) was > 8 µM. For the same molecule, the IC50 (SNU-423, read-out: NVP- CFC218 IC50 (µM), cell line SNU-423, liver, TP53 MUT) was > 8 µM, the IC50 (SNU-475, SNU-475, TP53 MUT) was > 8 µM and the IC50 (SU-DHL-4, SU-DHL-4, TP53 MUT) was > 8 µM. For the same molecule, the IC50 (SU-DHL-8, SU-DHL-8, TP53 MUT) was > 8 µM, the IC50 (SUP-M2, SUP-M2, TP53 WT) was 1.01 µM and the IC50 (SW480, SW480, TP53 MUT) was > 8 µM. The IC50 (SW579, SW579, TP53 MUT) was > 8 µM, the IC50 (SW780, read-out: NVP- CFC218 IC50 (µM), cell line SW 780, urinary_tract, TP53 WT) was > 8 µM and the IC50 (SW900, SW 900, TP53 MUT) was > 8 µM. For the same molecule, the IC50 (SW1271, SW 1271, TP53 MUT) was > 8 µM, the IC50 (SW1353, SW 1353, TP53 MUT) was 4.91 µM and the IC50 (SW1417, SW1417, TP53 MUT) was > 8 µM. The IC50 (SW1573, read-out: NVP- CFC218 IC50 (µM), cell line SW 1573, lung, TP53 WT) was > 8 µM, the IC50 (SW1783, SW 1783, TP53 MUT) was > 8 µM and the IC50 (SW1990, SW 1990, TP53 MUT) was > 8 µM. The IC50 (SW-403, read-out: NVP- CFC218 IC50 (µM), cell line SW403, large_intestine, TP53 MUT) was > 8 µM, the IC50 (T98G, TP53 MUT) was > 8 µM and the IC50 (TE 617.T, TP53 WT) was 2.91 µM. The IC50 (TE-1, TP53 MUT) was > 8 µM, the IC50 (TE-5, TP53 MUT) was > 8 µM and the IC50 (TE-11, read-out: NVP- CFC218 IC50 (µM), cell line TE-11, oesophagus, TP53 MUT) was > 8 µM. For the same molecule, the IC50 (TOV21G, TOV-21G, TP53 WT) was 5.41 µM, the IC50 (TT2609-C02, TP53 MUT) was > 8 µM and the IC50 (U-87 MG, TP53 WT) was > 8 µM. The IC50 (U-937, U-937, TP53 MUT) was > 8 µM, the IC50 (UMUC3, read-out: NVP- CFC218 IC50 (µM), cell line UM-UC-3, urinary_tract, TP53 MUT) was > 8 µM and the IC50 (VMRC-RCZ, TP53 WT) was > 8 µM. For the same molecule, the IC50 (WM 266-4, WM-266-4, TP53 WT) was 1.46 µM, the IC50 (WM983B, WM-983B, TP53 MUT) was > 8 µM and the IC50 (WM-115, WM-115, TP53 WT) was 3.38 µM. For the same molecule, the IC50 (WSUDLCL2, WSU-DLCL2, TP53 MUT) was > 8 µM, the IC50 (YKG-1, YKG1, TP53 MUT) was > 8 µM and the IC50 (read-out: NVP- CFC218 IC50 (µM), cell line BICR 31, upper_aerodigestive_tract, TP53 MUT) was > 8 µM. The IC50 (read-out: NVP- CFC218 IC50 (µM), cell line C3A, liver, TP53 WT) was > 8 µM, the IC50 (read-out: NVP- CFC218 IC50 (µM), cell line C32, skin, TP53 WT) was > 8 µM and the IC50 (read-out: NVP- CFC218 IC50 (µM), cell line CCK-81, large_intestine, TP53 MUT) was > 8 µM. For the same molecule, the IC50 (read-out: NVP- CFC218 IC50 (µM), cell line ES-2, ovary, TP53 MUT) was > 8 µM, the IC50 (read-out: NVP- CFC218 IC50 (µM), cell line HEC-108, endometrium, TP53 MUT) was > 8 µM and the IC50 (read-out: NVP- CFC218 IC50 (µM), cell line HEC-265, endometrium, TP53 WT) was > 8 µM. The IC50 (read-out: NVP- CFC218 IC50 (µM), cell line Hs 618.T, lung, TP53 WT) was > 8 µM, the IC50 (read-out: NVP- CFC218 IC50 (µM), cell line Hs 888.T, bone, TP53 WT) was > 8 µM and the IC50 (read-out: NVP- CFC218 IC50 (µM), cell line Hs 944.T, skin, TP53 WT) was > 8 µM. For the same molecule, the IC50 (read-out: NVP- CFC218 IC50 (µM), cell line JHOS-2, ovary, TP53 MUT) was > 8 µM.
